Assay results: patent US7045343B2, “Sterilization indicator test packs” (3M Innovative Properties Company, priority 1998, dated 2006)

System: enzyme associated with Bacillus stearothermophilus spores
Experiment: Rapid enzyme fluorescence readout of indicators after hydrogen peroxide plasma sterilization
Format: biochemical
Settings: for FLUORESCENCE - PERCENT POSITIVE 1 HR / FLUORESCENCE - PERCENT POSITIVE 2 HR / FLUORESCENCE - PERCENT POSITIVE 3 HR / FLUORESCENCE - PERCENT POSITIVE 4 HR / FLUORESCENCE - PERCENT POSITIVE 5 HR: 1–22 min diffusion
Summary of the method: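 Indicators with a TYVEK closure held spores coated with various chemicals and were exposed to hydrogen peroxide plasma at 45–55 °C: 6–7 mg/ml chamber peroxide, diffusing 1–22 min at 6–10 Torr. Enzyme fluorescence was read hourly for 5 h at 60 °C. Growth was scored visually as a purple-to-yellow change after 168 h.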

Decaglyceryl Decaoleate
accuracy of sterilization indicators compared to indicators made with untreated spores (1–3 hours after exposure): improved
accuracy of sterilization indicators compared to indicators made with untreated spores (2–3 hours after exposure): improved
accuracy of sterilization indicators compared to indicators made with untreated spores (2–3 hours after exposure, concentrations of 5–100 mg/ml): improved
FLUORESCENCE - PERCENT POSITIVE 1 HR (Example 6, 10 mg/ml coating): 83.7%
FLUORESCENCE - PERCENT POSITIVE 2 HR (Example 6, 10 mg/ml coating): 100%
FLUORESCENCE - PERCENT POSITIVE 3 HR (Example 6, 10 mg/ml coating): 100%
FLUORESCENCE - PERCENT POSITIVE 4 HR (Example 6, 10 mg/ml coating): 100%
FLUORESCENCE - PERCENT POSITIVE 5 HR (Example 6, 10 mg/ml coating): 100%
FLUORESCENCE - PERCENT POSITIVE 1 HR (Example 7, 10 mg/ml coating): 83.7%
FLUORESCENCE - PERCENT POSITIVE 2 HR (Example 7, 10 mg/ml coating): 100%
FLUORESCENCE - PERCENT POSITIVE 3 HR (Example 7, 10 mg/ml coating): 100%
FLUORESCENCE - PERCENT POSITIVE 4 HR (Example 7, 10 mg/ml coating): 100%
FLUORESCENCE - PERCENT POSITIVE 5 HR (Example 7, 10 mg/ml coating): 100%
FLUORESCENCE - PERCENT POSITIVE 1 HR (Example 9, 5 mg/ml coating): 65.7%
FLUORESCENCE - PERCENT POSITIVE 2 HR (Example 9, 5 mg/ml coating): 100%
FLUORESCENCE - PERCENT POSITIVE 3 HR (Example 9, 5 mg/ml coating): 100%
FLUORESCENCE - PERCENT POSITIVE 4 HR (Example 9, 5 mg/ml coating): 100%
FLUORESCENCE - PERCENT POSITIVE 5 HR (Example 9, 5 mg/ml coating): 100%
FLUORESCENCE - PERCENT POSITIVE 1 HR (Example 9, 7.5 mg/ml coating): 83.5%
FLUORESCENCE - PERCENT POSITIVE 2 HR (Example 9, 7.5 mg/ml coating): 100%
FLUORESCENCE - PERCENT POSITIVE 3 HR (Example 9, 7.5 mg/ml coating): 100%
FLUORESCENCE - PERCENT POSITIVE 4 HR (Example 9, 7.5 mg/ml coating): 100%
FLUORESCENCE - PERCENT POSITIVE 5 HR (Example 9, 7.5 mg/ml coating): 100%
FLUORESCENCE - PERCENT POSITIVE 1 HR (Example 9, 10 mg/ml coating): 83.7%
FLUORESCENCE - PERCENT POSITIVE 2 HR (Example 9, 10 mg/ml coating): 100%
FLUORESCENCE - PERCENT POSITIVE 3 HR (Example 9, 10 mg/ml coating): 100%
FLUORESCENCE - PERCENT POSITIVE 4 HR (Example 9, 10 mg/ml coating): 100%
FLUORESCENCE - PERCENT POSITIVE 5 HR (Example 9, 10 mg/ml coating): 100%
FLUORESCENCE - PERCENT POSITIVE 1 HR (Example 9, 50 mg/ml coating): 85.0%
FLUORESCENCE - PERCENT POSITIVE 2 HR (Example 9, 50 mg/ml coating): 90.2%
FLUORESCENCE - PERCENT POSITIVE 3 HR (Example 9, 50 mg/ml coating): 100%
FLUORESCENCE - PERCENT POSITIVE 4 HR (Example 9, 50 mg/ml coating): 100%
FLUORESCENCE - PERCENT POSITIVE 5 HR (Example 9, 50 mg/ml coating): 100%
FLUORESCENCE - PERCENT POSITIVE 1 HR (Example 9, 100 mg/ml coating): 73.3%
FLUORESCENCE - PERCENT POSITIVE 2 HR (Example 9, 100 mg/ml coating): 86.7%
FLUORESCENCE - PERCENT POSITIVE 3 HR (Example 9, 100 mg/ml coating): 100%
FLUORESCENCE - PERCENT POSITIVE 4 HR (Example 9, 100 mg/ml coating): 100%
FLUORESCENCE - PERCENT POSITIVE 5 HR (Example 9, 100 mg/ml coating): 100%

Decaglyceryl Monostearate
FLUORESCENCE - PERCENT POSITIVE 1 HR (Example 7, 50 mg/ml coating): 64.4%
FLUORESCENCE - PERCENT POSITIVE 2 HR (Example 7, 50 mg/ml coating): 83.0%
FLUORESCENCE - PERCENT POSITIVE 3 HR (Example 7, 50 mg/ml coating): 89.8%
FLUORESCENCE - PERCENT POSITIVE 4 HR (Example 7, 50 mg/ml coating): 91.3%
FLUORESCENCE - PERCENT POSITIVE 5 HR (Example 7, 50 mg/ml coating): 91.3%
